Earlier results in patent US20100029551A1, “Treatment Of Inflammatory Lung Conditions With Aerosolized Macrolide Antibiotics” (priority 2008, published 2010).

## CO[C@]1(C)C[C@@H](C)C(=O)[C@H](C)[C@@H](O)[C@](C)(O)[C@@H](C(C)O)OC(=O)[C@H](C)[C@@H](O[C@H]2C[C@@](C)(OC)[C@@H](O)[C@H](C)O2)[C@H](C)[C@H]1O[C@@H]1O[C@H](C)C[C@H](N(C)C)[C@H]1O (some centres unmarked) [14-hydroxy clarithromycin]
first-pass metabolite of clarithromycin
  Activity relative to clarithromycin: approximately twice as active as clarithromycin
plasma
  Plasma half-life relative to clarithromycin: significantly longer plasma half-life than clarithromycin
